Test results from PubChem BioAssay AID248 (DTP/NCI, 2004).
Values joined by “and” are separate entries in the source; they are usually repeats but may differ in a detail not shown here. Equal values may be shown once. Toxic doses and inconclusive results are not listed. Rule as the data show it: active = T/C of 150% or more; inactive = T/C below 125%. Peptide text beside a SMILES is read from it. * marks the point of attachment. Bz = O=C(c1ccccc1)*

Tested on: L1210 leukemia ip in BDF1 mice, survival T/C
Assay: NCI In Vivo Anticancer Drug Screen. Data for tumor model L1210 Leukemia (intraperitoneal) in B6D2F1 (BDF1) mice
Settings: endpoint: mean survival time, higher = longer survival
In short: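 Ratio derived from survival: compound-dosed mice over vehicle-dosed mice, all bearing a transplantable tumor.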

[1] = dose: 100.0 mg/kg/injection, schedule: Q01DX009 (ip), vehicle: saline with Tween-80
[2] = dose: 200.0 mg/kg/injection, schedule: Q01DX009 (ip), vehicle: saline with Tween-80
[3] = dose: 400.0 mg/kg/injection, schedule: Q01DX009 (ip), vehicle: saline with Tween-80
[4] = dose: 100.0 mg/kg/injection, schedule: Q01DX001 (ip), vehicle: saline
[5] = dose: 200.0 mg/kg/injection, schedule: Q01DX001 (ip), vehicle: saline
[6] = dose: 400.0 mg/kg/injection, schedule: Q01DX001 (ip), vehicle: saline
[7] = dose: 25.0 mg/kg/injection, schedule: Q04DX003 (ip), vehicle: saline
[8] = dose: 100.0 mg/kg/injection, schedule: Q01DX009 (ip), vehicle: saline
[9] = dose: 100.0 mg/kg/injection, schedule: Q04DX003 (ip), vehicle: saline
[10] = dose: 100.0 mg/kg/injection, schedule: Q04DX003 (ip), vehicle: saline with Tween-80
[11] = dose: 200.0 mg/kg/injection, schedule: Q04DX003 (ip), vehicle: saline with Tween-80
[12] = dose: 100.0 mg/kg/injection, schedule: Q01DX009 (ip), vehicle: Klucel (hydroxypropylcellulose) (HPC)
[13] = dose: 50.0 mg/kg/injection, schedule: Q01DX001 (ip), vehicle: saline

Measured: T/C

COC(=O)CNC(=O)CNC(=O)c1ccccc1 (Bz-Gly-Gly-OMe)
inactive: [1] 89 % of control | [2] 87 % of control | [3] 87 % of control

Clc1ccc(/C=N\Nc2c3ccccc3nc3ccccc23)cc1Cl
inactive: [4] 97 % of control | [5] 94 % of control | [6] 111 % of control

C=CCOCCN1CCN(CCCN2c3ccccc3Sc3ccc(C(F)(F)F)cc32)CC1
inactive: dose: 0.23 mg/kg/injection, schedule: Q01DX009 (ip), vehicle: saline 93 % of control | dose: 0.35 mg/kg/injection, schedule: Q01DX009 (ip), vehicle: saline 86 % of control | dose: 0.54 mg/kg/injection, schedule: Q01DX009 (ip), vehicle: saline 98 % of control | dose: 1.09 mg/kg/injection, schedule: Q01DX009 (ip), vehicle: saline 111 % of control | dose: 2.18 mg/kg/injection, schedule: Q01DX009 (ip), vehicle: saline 86 % of control | dose: 6.25 mg/kg/injection, schedule: Q04DX003 (ip), vehicle: saline 101 % of control | dose: 12.5 mg/kg/injection, schedule: Q04DX003 (ip), vehicle: saline 110 % of control | dose: 16.0 mg/kg/injection, schedule: Q01DX003 (ip), vehicle: saline 117 % of control | dose: 17.0 mg/kg/injection, schedule: Q04DX003 (ip), vehicle: saline 101 % of control | dose: 25.0 mg/kg/injection, schedule: Q01DX003 (ip), vehicle: saline 108 % of control | [7] 106 % of control

COc1ccc2nc(C)c(COC(C)=O)c(Cl)c2c1
inactive: [8] 102 % of control | [9] 100 % of control | dose: 200.0 mg/kg/injection, schedule: Q01DX009 (ip), vehicle: saline 92 % of control | dose: 200.0 mg/kg/injection, schedule: Q04DX003 (ip), vehicle: saline 96 % of control | dose: 400.0 mg/kg/injection, schedule: Q01DX009 (ip), vehicle: saline 97 % of control | dose: 400.0 mg/kg/injection, schedule: Q04DX003 (ip), vehicle: saline 112 % of control

O=C1CC[C@H](NC(=O)OCc2ccccc2)C(=O)O1
inactive: [10] 100 % of control | [11] 100 % of control | dose: 400.0 mg/kg/injection, schedule: Q04DX003 (ip), vehicle: saline with Tween-80 97 % of control

CC(=O)Nc1ccc(Cc2ccc3[nH]c(C)cc(=O)c3c2)cc1
inactive: [4] 109 % of control | [5] 98 % of control | [6] 93 % of control

CC1(C)Cc2cccc(C(=O)CCCN3CCCCC3)c2O1
inactive: [4] 104 % of control

O=C(O)Cc1ccc([N+](=O)[O-])cc1
inactive: [1] 90 % of control | [2] 93 % of control | [3] 94 % of control

CN(N)P(=O)(c1ccccc1)N(C)N
inactive: dose: 25.0 mg/kg/injection, schedule: Q01DX009 (ip), vehicle: saline 103 % of control | [7] 101 % of control | dose: 50.0 mg/kg/injection, schedule: Q01DX009 (ip), vehicle: saline 100 % of control | dose: 50.0 mg/kg/injection, schedule: Q04DX003 (ip), vehicle: saline 98 % of control | [9] 104 % of control and 105 % of control

O=c1c(Br)c[nH]cc1Br
inactive: dose: 12.5 mg/kg/injection, schedule: Q01DX009 (ip), vehicle: Klucel (hydroxypropylcellulose) (HPC) 91 % of control | dose: 25.0 mg/kg/injection, schedule: Q01DX009 (ip), vehicle: Klucel (hydroxypropylcellulose) (HPC) 111 % of control | dose: 50.0 mg/kg/injection, schedule: Q01DX009 (ip), vehicle: Klucel (hydroxypropylcellulose) (HPC) 91 % of control | [12] 98 % of control

CCCCCC(=N\N=C(N)N)/C(C)=N/N=C(N)N
inactive: dose: 7.5 mg/kg/injection, schedule: Q01DX Z (ip), vehicle: saline 106 % of control | dose: 15.0 mg/kg/injection, schedule: Q01DX Z (ip), vehicle: saline 111 % of control | dose: 30.0 mg/kg/injection, schedule: Q01DX Z (ip), vehicle: saline 93 % of control

Cc1ccc(C)c(NS(C)(=O)=O)c1
inactive: [13] 96 % of control | [4] 91 % of control | [5] 102 % of control | [6] 102 % of control

Cc1ccc(S(=O)(=O)N2CCc3ccccc3C3(C2)OCCO3)cc1
inactive: dose: 100.0 mg/kg/injection, schedule: Q01DX001 (ip), vehicle: carboxymethylcellulose (CMC) 96 % of control | dose: 200.0 mg/kg/injection, schedule: Q01DX001 (ip), vehicle: carboxymethylcellulose (CMC) 96 % of control | dose: 400.0 mg/kg/injection, schedule: Q01DX001 (ip), vehicle: carboxymethylcellulose (CMC) 98 % of control

O=C(Nc1ccccc1)Nc1ccccn1
inactive: dose: 12.5 mg/kg/injection, schedule: Q04DX003 (ip), vehicle: saline with Tween-80 95 % of control | dose: 25.0 mg/kg/injection, schedule: Q04DX003 (ip), vehicle: saline with Tween-80 95 % of control

CSc1nc(C)c(NC(C)=O)c(=O)[nH]1
inactive: [13] 98 % of control | [4] 101 % of control | [5] 98 % of control | [6] 104 % of control

Cn1c(N)cc(=O)n(C)c1=O
inactive: dose: 100.0 mg/kg/injection, schedule: Q01DX001 (ip), vehicle: Klucel (hydroxypropylcellulose) (HPC) 112 % of control | dose: 200.0 mg/kg/injection, schedule: Q01DX001 (ip), vehicle: Klucel (hydroxypropylcellulose) (HPC) 107 % of control | dose: 400.0 mg/kg/injection, schedule: Q01DX001 (ip), vehicle: Klucel (hydroxypropylcellulose) (HPC) 109 % of control

[NH-]S(=O)(=O)O.[NH-]S(=O)(=O)O.[NH2-].[NH2-].[Pt+4]
inactive: dose: 10.0 mg/kg/injection, schedule: Q01DX009 (ip), vehicle: saline with Tween-80 100 % of control | dose: 20.0 mg/kg/injection, schedule: Q01DX009 (ip), vehicle: saline with Tween-80 90 % of control | dose: 40.0 mg/kg/injection, schedule: Q01DX009 (ip), vehicle: saline with Tween-80 100 % of control

CCCC(=O)c1ccc(OC)c(OC)c1
inactive: [12] 101 % of control | dose: 200.0 mg/kg/injection, schedule: Q01DX009 (ip), vehicle: Klucel (hydroxypropylcellulose) (HPC) 95 % of control

CN(C)NCCC#N
inactive: dose: 66.0 mg/kg/injection, schedule: Q01DX009 (ip), vehicle: saline 118 % of control | dose: 75.0 mg/kg/injection, schedule: Q01DX009 (ip), vehicle: saline 116 % of control | dose: 100.0 mg/kg/injection, schedule: Q01DX009 (ip), vehicle: saline sonified 98 % of control | [8] 116 % of control | dose: 200.0 mg/kg/injection, schedule: Q01DX009 (ip), vehicle: saline sonified 111 % of control

CCSSCC(NC(=O)OC(C)(C)C)C(=O)O (centres undefined)
inactive: dose: 50.0 mg/kg/injection, schedule: Q04DX003 (ip), vehicle: other 97 % of control | dose: 100.0 mg/kg/injection, schedule: Q01DX001 (ip), vehicle: other 101 % of control | dose: 100.0 mg/kg/injection, schedule: Q04DX003 (ip), vehicle: other 94 % of control | dose: 200.0 mg/kg/injection, schedule: Q01DX001 (ip), vehicle: other 97 % of control | dose: 200.0 mg/kg/injection, schedule: Q04DX003 (ip), vehicle: other 97 % of control

CSc1ccccc1C[P+](c1ccccc1)(c1ccccc1)c1ccccc1
inactive: dose: 1.56 mg/kg/injection, schedule: Q01DX009 (ip), vehicle: saline with Tween-80 102 % of control | dose: 3.13 mg/kg/injection, schedule: Q01DX009 (ip), vehicle: saline with Tween-80 103 % of control | dose: 6.25 mg/kg/injection, schedule: Q01DX009 (ip), vehicle: saline with Tween-80 105 % of control

O=C(COC(=O)c1ccccc1)NCCCCc1ccccc1
inactive: dose: 100.0 mg/kg/injection, schedule: Q01DX001 (ip), vehicle: saline with Tween-80 100 % of control | [1] 105 % of control and 91 % of control | dose: 100.0 mg/kg/injection, schedule: Q04DX002 (ip), vehicle: saline with Tween-80 96 % of control | [10] 94 % of control | dose: 200.0 mg/kg/injection, schedule: Q01DX001 (ip), vehicle: saline with Tween-80 89 % of control | [2] 95 % of control and 100 % of control | dose: 200.0 mg/kg/injection, schedule: Q04DX002 (ip), vehicle: saline with Tween-80 99 % of control and 91 % of control | [11] 92 % of control | [3] 94 % of control and 95 % of control | dose: 400.0 mg/kg/injection, schedule: Q04DX002 (ip), vehicle: saline with Tween-80 93 % of control and 86 % of control
